How the values were obtained:
Type in all cases: cell-based
[1] = test system: human hematopoietic CD34+ stem cells; test: Production of dendritic cells from human hematopoietic CD34+ stem cells, cell markers (Example 2); details: TNF-α 2.5 ng/ml or RU 41740 6.25 ng/ml from D0 to D5
Procedure: Purification: After Ficoll, the CD34+ represented 4.2% of the mononucleated cells (MNC).
After purification by positive selection with the MAC System procedure (Miltenyi Biotec) with beads coated with an anti-CD34 antibody, 90% of the cells are CD34+.
Culture Medium: RPMI containing 10% of FCS, 2% of penicillin/streptomycin, 1% of glutamine and 1% of sodium bicarbonate.
Culture in 2 ml wells with 5×10^5 cells per well. from D0 to D5: […] at 25 ng/ml, GM-CSF at 100 ng/ml and either TNF-α at 2.5 ng/ml […]
from D5 to D14: GM-CSF at 100 ng/ml
Duplication of the Cultures: -the cells are homogenized in the well, then 1 ml sample is taken and deposited in a fresh well. 1 ml of culture medium is then added to the fresh well and the old one, as well as GM-CSF as a function of the medium added.
A fluorescence-labelled anti-KLH primary antibody was used as control in order to be able to subtract the non-specific fluorescence of the signals obtained.

[2] = test system: CD34+ cells of human cord blood; test: Production of dendritic cells from CD34+ cells of human cord blood, cell markers (Example 3); details: TNF-α 200 IU/ml or RU 41740 10 μg/ml until D6
Text: The experimental conditions are similar to Example 2, except the fact that the cells are derived from cord blood:
Purification: After Ficoll, the CD34+ cells represent 0.83% of the mononucleated cells (MNC).
After purification by positive selection, 18.1% of CD34+ are obtained.
Duplication: on D6, D7,D8, D10 and D12.

Langerhans cells = test: Differentiation of Langerhans cells from cord blood CD34+ cells (Example 4); details: D12; GM-CSF with TNF-α 2.5 ng/ml or RU 41740 10 μg/ml for 12 days
Text: The stem cells are obtained after a passage of cord blood through a Ficoll gradient. The mononucleated CD34+ cells are purified by positive selection with an anti-CD34 monoclonal antibody (Immu 133.3, Immunotech Marseille, France). After purification, more than 90% of the cells are CD34+.
At the end of the culture period at D12, the cells are labelled with the anti-CD1a, CD14, Lag, E-cadherin, DR and DQ antibodies so as to identify the Langerhans cells which are Lag+, CD1a+, CD14−, DR+ and DQ+.

## TNF-α
[1]; D8
  CD1a, percentage of cells expressing the marker: 8.7%
  CD14, percentage of cells expressing the marker: 40%
  CD34, percentage of cells expressing the marker: 0.7%
  CD40, percentage of cells expressing the marker: 44%
  CD45, percentage of cells expressing the marker: 96%
  CD54, percentage of cells expressing the marker: 33%
  CD83, percentage of cells expressing the marker: 0.5%
  CD86, percentage of cells expressing the marker: 13%
  HLA-DR, percentage of cells expressing the marker: 88%
[1]; D12
  CD1a, percentage of cells expressing the marker: 8.4%
  CD14, percentage of cells expressing the marker: 63.2%
  CD40, percentage of cells expressing the marker: 64.3%
  CD54, percentage of cells expressing the marker: 61.8%
  CD80, percentage of cells expressing the marker: 5.3%
  CD83, percentage of cells expressing the marker: 1.3%
  CD86, percentage of cells expressing the marker: 7.4%
  HLA-DQ, percentage of cells expressing the marker: 54.1%
  HLA-DR, percentage of cells expressing the marker: 80.3%
[1]; D14
  CD1a, percentage of cells expressing the marker: 10.3%
  CD14, percentage of cells expressing the marker: 54.1%
  CD83, percentage of cells expressing the marker: 0.8%
  CD86, percentage of cells expressing the marker: 2.2%
  HLA-DR, percentage of cells expressing the marker: 69.9%
[2]; D7
  CD1a, percentage of labelled cells: 4.41%
  CD14, percentage of labelled cells: 32%
  CD16, percentage of labelled cells: 2.24%
  CD34, percentage of labelled cells: 19.79%
  CD45, percentage of labelled cells: 99.84%
  CD83, percentage of labelled cells: 1.09%
  CD86, percentage of labelled cells: 11.61%
[2]; D9
  CD1a, percentage of labelled cells: 23.75%
  CD14, percentage of labelled cells: 59.6%
  CD16, percentage of labelled cells: 2.16%
  CD34, percentage of labelled cells: 2.53%
  CD45, percentage of labelled cells: 99.96%
  CD83, percentage of labelled cells: 4.24%
  CD86, percentage of labelled cells: 22.23%
[2]; D10
  CD1a, percentage of labelled cells: 20.63%
  CD14, percentage of labelled cells: 60%
  CD16, percentage of labelled cells: 2.11%
  CD34, percentage of labelled cells: 2.26%
  CD45, percentage of labelled cells: 99.97%
  CD83, percentage of labelled cells: 2.46%
  CD86, percentage of labelled cells: 9.23%
[2]; D12
  CD1a, percentage of labelled cells: 27.9%
  CD14, percentage of labelled cells: 66.77%
  CD34, percentage of labelled cells: 0.69%
  CD40, percentage of labelled cells: 75.91%
  CD45, percentage of labelled cells: 99.85%
  CD54, percentage of labelled cells: 74.66%
  CD83, percentage of labelled cells: 0.71%
  CD86, percentage of labelled cells: 13.94%
  HLA-DR, percentage of labelled cells: 81.34%
[2]; D13
  CD1a, percentage of labelled cells: 36.13%
  CD14, percentage of labelled cells: 57.73%
  CD34, percentage of labelled cells: 0.45%
  CD40, percentage of labelled cells: 63.35%
  CD45, percentage of labelled cells: 99.69%
  CD54, percentage of labelled cells: 61.7%
  CD83, percentage of labelled cells: 3.19%
  CD86, percentage of labelled cells: 12.78%
  HLA-DR, percentage of labelled cells: 73.04%
[2]; D14
  CD1a, percentage of labelled cells: 34.2%
  CD14, percentage of labelled cells: 46.77%
  CD34, percentage of labelled cells: 0.38%
  CD40, percentage of labelled cells: 64.56%
  CD45, percentage of labelled cells: 99.93%
  CD54, percentage of labelled cells: 64.4%
  CD83, percentage of labelled cells: 1.22%
  CD86, percentage of labelled cells: 19.33%
  HLA-DR, percentage of labelled cells: 57.84%
Langerhans cells
  CD1a+ DR+ cells: 8%
  Lag+ DR+ cells: 5.2%
